Reference: US8993608B2, “Method for inhibiting topoisomerase II” (Synta Pharmaceuticals Corp., priority 2007, dated 2015)

How the values were obtained:
[1] = system: Her2; assay: Degradation of Her2 in BT-474 cells after treatment (Method 1, SDS-PAGE/immunoblot); format: cell-based, Human; details: overnight
Procedure: Human high-Her2 breast carcinoma BT474 (HTB-20), SK-BR-3 (HTB-30) and MCF-7 breast carcinoma (HTB-22) from American Type Culture Collection, Va., USA were grown in Dulbecco's modified Eagle's medium with 4 mM L-glutamine and antibiotics (100 IU/ml penicillin and 100 ug/ml streptomycine;GibcoBRL). To obtain exponential cell growth, cells were trypsinized, counted and seeded at a cell density of 0.5×10^6 cells /ml regularly, every 3 days. All experiments were performed on day 1 after cell passage.
BT-474 cells were treated with 0.5 μM, 2 μM, or 5 μM of 17AAG (a positive control) or 0.5 μM, 2 μM, or 5 μM of Compound 108 or Compound 49 overnight in DMEM medium. After treatment, each cytoplasmic sample was prepared from 1×10^6 cells by incubation of cell lysis buffer (#9803, cell Signaling Technology) on ice for 10 minutes. The resulting supernatant used as the cytosol fractions were dissolved with sample buffer for SDS-PAGE and run on a SDS-PAGE gel, blotted onto a nitrocellulose membrane by using semi-dry transfer. Non-specific binding to nitrocellulose was blocked with 5% skim milk in TBS with 0.5% Tween at roomtemperature for 1 hour, then probed with anti-Her2/ErB2 mAb (rabbit IgG, #2242, Cell Signaling) and anti-Tubulin (T9026, Sigma) as housekeeping control protein. HRP-conjugated goat anti-rabbit IgG (H+L) and HRP-conjugated horse anti-mouse IgG (H+L) were used as secondary Ab (#7074, #7076, Cell Signaling) and LumiGLO reagent, 20× Peroxide (#7003, Cell Signaling) was used for visualization.

[2] = system: Hsp90 protein; assay: Malachite Green Assay of ATPase activity of Hsp90 protein; format: biochemical
Procedure: Hsp90 protein was obtained from Stressgen (Cat#SPP-770). Assay buffer: 100 mM Tris-HCl, Ph7.4, 20 mM KCl, 6 mM MgCl2. […] Malachite green reagent was added to the reaction. […] The plate was read by an ELISA reader with an absorbance at 620 nm.

[3] = target: T1, topoisomerase II (Homo sapiens, UniProt P11388); assay: kDNA decatenation assay for inhibition of topoisomerase II; format: biochemical; details: 200 nM, lane 8 of FIG. 3
T1 construct: purchased TopoGEN, Inc
Procedure: The ability of compounds of the invention to inhibit the activity of topoisomerase II was examined with a kDNA decatenation assay (TopoGEN, Inc. Port Orange, Fla.). Substrate kDNA was mixed with compounds and incubated at 37° C. for 30 min. The reaction was stop by adding ⅕ volume of stop buffer. 20 μl of the reaction was loaded on 1% agarose gel. Image of decatenation of kDNA by compounds was taken by Kodak Image Station 440.
In the presence of topoisomerase II, decatenated nicked and circular kDNAs are located at the bottom of the gel. […] Table 9 indicates the ability of compounds of the invention to inhibit the activity of topoisomease II.

[4] = target: human topo II (Homo sapiens, UniProt P11388); details: Gadelle et al., Biochemical Pharmacology (2006); cited from earlier work
Chain of human topo II (P11388 whole entry): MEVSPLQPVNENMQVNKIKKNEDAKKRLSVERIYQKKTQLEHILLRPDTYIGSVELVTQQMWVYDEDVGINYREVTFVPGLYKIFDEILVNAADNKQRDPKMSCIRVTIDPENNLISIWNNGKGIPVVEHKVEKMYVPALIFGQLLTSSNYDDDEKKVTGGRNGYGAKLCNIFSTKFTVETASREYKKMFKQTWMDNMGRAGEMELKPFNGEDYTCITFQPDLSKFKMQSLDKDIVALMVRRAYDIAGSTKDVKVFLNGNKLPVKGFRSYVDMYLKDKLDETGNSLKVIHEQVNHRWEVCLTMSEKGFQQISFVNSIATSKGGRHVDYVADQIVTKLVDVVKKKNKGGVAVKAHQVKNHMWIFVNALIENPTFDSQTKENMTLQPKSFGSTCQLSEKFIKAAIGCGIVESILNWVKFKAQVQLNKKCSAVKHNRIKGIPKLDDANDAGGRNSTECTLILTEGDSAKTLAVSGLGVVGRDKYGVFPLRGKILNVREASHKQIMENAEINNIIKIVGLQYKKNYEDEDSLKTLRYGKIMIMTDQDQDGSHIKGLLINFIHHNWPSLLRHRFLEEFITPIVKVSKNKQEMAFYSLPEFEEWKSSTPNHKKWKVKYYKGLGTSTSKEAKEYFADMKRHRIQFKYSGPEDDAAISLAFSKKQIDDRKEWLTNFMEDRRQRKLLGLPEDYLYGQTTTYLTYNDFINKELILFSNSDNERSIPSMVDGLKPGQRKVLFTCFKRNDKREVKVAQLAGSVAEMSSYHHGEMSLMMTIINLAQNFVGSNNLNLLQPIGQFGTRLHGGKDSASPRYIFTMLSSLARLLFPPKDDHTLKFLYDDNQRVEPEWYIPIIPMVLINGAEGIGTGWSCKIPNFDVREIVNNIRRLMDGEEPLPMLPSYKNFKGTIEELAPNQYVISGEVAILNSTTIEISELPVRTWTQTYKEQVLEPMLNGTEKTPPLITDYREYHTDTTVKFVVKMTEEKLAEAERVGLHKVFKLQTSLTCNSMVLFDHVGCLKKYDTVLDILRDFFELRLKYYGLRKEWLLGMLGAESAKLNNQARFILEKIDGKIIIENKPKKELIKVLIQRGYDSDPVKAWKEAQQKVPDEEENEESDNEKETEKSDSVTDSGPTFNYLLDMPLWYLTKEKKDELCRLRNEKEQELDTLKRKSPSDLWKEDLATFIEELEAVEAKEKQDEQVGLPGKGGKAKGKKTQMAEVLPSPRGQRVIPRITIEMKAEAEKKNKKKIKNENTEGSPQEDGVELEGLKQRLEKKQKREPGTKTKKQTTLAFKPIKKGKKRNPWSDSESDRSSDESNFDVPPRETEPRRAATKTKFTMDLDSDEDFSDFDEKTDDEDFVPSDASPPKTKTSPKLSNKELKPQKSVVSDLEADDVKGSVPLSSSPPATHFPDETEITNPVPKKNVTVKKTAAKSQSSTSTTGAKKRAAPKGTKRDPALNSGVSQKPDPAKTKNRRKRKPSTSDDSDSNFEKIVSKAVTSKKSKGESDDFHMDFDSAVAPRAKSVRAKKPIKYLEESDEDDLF

T1 sequence (P11388 whole entry): as above

inhibition of ATPase activity of Hsp90 ([2]; 4 μM)	Compound	degradation of Her2 ([1]; 0.5 μM)	degradation of Her2 ([1]; 2 μM)	degradation of Her2 ([1]; 5 μM)	inhibition of ATPase activity of Hsp90 ([2]; 40 μM)	inhibition of the activity of topoisomerase II [3]	inhibition of the activity of human topo II [4]
	CCc1cc(-c2nnc(S)n2-c2cccc3ccccc23)c(O)cc1O [Compound 49, 3-(2,4-Dihydroxy-5-ethyl-phenyl)-4-(naphthalen-1-yl)-5-mercapto-triazole]	partial degradated	complete degradation	complete degradation			
significant inhibition	Oc1ccc(-c2nnc(S)n2-c2cccc3ccccc23)c(O)c1 [Compound 108, 3-(2,4-Dihydroxy-phenyl)-4-(naphthalen-1-yl)-5-mercapto-triazole]	partially degradated	partially degradated	almost completely degraded	even greater inhibition of ATPase activity of Hsp90 than geldanamycin		
	C[C@@H]1C[C@H]2O[C@@H]2/C=C\C=C\C(=O)Cc2c(Cl)c(O)cc(O)c2C(=O)O1 [radicicol]					completely inhibits the activity of topoisomerase II	can inhibit the activity of human topo II
